Measurements published in PMC5768801, “The PII signaling protein from red algae represents an evolutionary link between cyanobacterial and Chloroplastida PII proteins” (Scientific Reports, 2018).
“Also recorded” adds a separate entry of the source.

Tests used:
ScNAGK = biological target: T1, ScNAGK (Synechocystis sp., UniProt P73326); assay: AGPR-coupled NAGK activity assay without PpPII; format: biochemical, Synechocystis sp. PCC 6803; details: absence of PpPII, comparing 0 and 4 mM ADP, at 1 mM or 2 mM ATP
T1 sequence (P73326 1-297): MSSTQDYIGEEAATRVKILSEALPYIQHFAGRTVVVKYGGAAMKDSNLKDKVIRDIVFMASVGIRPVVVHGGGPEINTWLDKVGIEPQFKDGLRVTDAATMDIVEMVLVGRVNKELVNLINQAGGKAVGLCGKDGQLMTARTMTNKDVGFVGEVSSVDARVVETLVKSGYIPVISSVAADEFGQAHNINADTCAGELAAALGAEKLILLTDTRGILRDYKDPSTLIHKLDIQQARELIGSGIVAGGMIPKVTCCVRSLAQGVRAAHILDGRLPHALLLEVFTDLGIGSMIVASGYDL
Text: All available structural information of PII proteins revelas that ATP and ADP bind to the same binding sites[2],[7]. When ATP and ADP are simultaneously present, they will compete for binding to the PII trimer. Since, the ATP/ADP binding site of the red algal PpPII protein is highly conserved (Fig. 1), competition between the nucleotides will occur. Since the activation of NAGK by PII is dependent on the ATP-ligated state of PII[9] and ADP inhibits PII-NAGK complex formation[9],[31], competition between ATP/ADP for PII binding can be monitored by measuring NAGK activity[31] under different ATP/ADP ratios. For this assay, we used an AGPR-coupled activity assay for NAGK[33], which allows measurement of NAGK activity in presence of ADP. Different concentrations of ADP were added to reaction mixtures containing either 1 mM or 2 mM ATP, in the absence or presence of PpPII (Fig. 8). Addition of ADP led to a monotonical and shallow decrease in the activity of ScNAGK at both fixed ATP concentration. […]
The change in NADPH absorbance was recorded at 340 nm as described previously[31],[33], in a reaction buffer composed of 50 mM potassium phosphate (pH 7.0), 50 mM KCl, 20 mM MgCl2, 0.2 mM NADPH and 0.5 mM DTT. […] The reaction was started by the addition of ScNAGK and was recorded for 10 min with a spectrophotometer (SPECORD 210 PLUS, Analytik Jena). Kinetic constants were calculated as descried above.

CrPII = assay: ITC binding of small effector molecules to green algal CrPII; parameters: species or system Chlamydomonas reinhardtii
Description: To gain additional insights into the ligand binding properties of PpPII in comparison to cyanobacterial and chloroplastid PII proteins, isothermal titration calorimetry (ITC) experiments were performed using highly purified Strep-tagged or His-tagged recombinant PpPII, SyPII, CrPII, and PhyscoPII proteins (Supplementary Fig. S1) with different protein/ligand/ concentrations to determine the best fitting conditions of the binding model. The titration experiments were repeated with different protein preparations to confirm the reproducibility of the results. The raw isothermal data were fitted into one-binding site as well as three-sequential binding sites to define the best fitting model. Fitting using a one binding site model states an average Kd value for all available binding sites and the mean of the stoichiometry of bound ligands.
The ITC experiments were done using a VP-ITC microcalorimeter (MicroCal, LCC). All details for determination of binding constants for small effector molecules using ITC are fully described in the supplementary information. Heat isotherms of the dilution of the ligand in the cell buffer were collected in a blank run for each experiment in the absence of protein. The binding isotherms were calculated from received data and fitted to one-site and three-sequential binding sites models using the MicroCal ORIGIN software (Northampton) as described. All titrations were performed in duplicates with different purification batches of recombinant PII proteins. The association binding constant (Ka) was generated from the software by de-convolution and curve fitting. For calculation of dissociation constant (Kd), the Ka value was inversed.
Supplementary Information […]
Determination of Binding Constants for Small Effector Molecules using Isothermal […]
The binding of the small effector molecules to the recombinant PII proteins was tested using isothermal titration calarmity (ITC); VP-ITC microcalorimeter (MicroCal). All titrations were performed on 20°C using […] injection syringe with injection 6 µl or 10 µl of the tested ligands for 45 or 29 times, respectively into the cell (1.4 ml) with continuous stirring at 155 rpm. All tested ligands were high grade, prepared freshly in the same buffer of the protein and purchased from Sigma-Aldrich. Heat isotherms for the dilution of the ligand in the cell buffer were collected in a blank run in the absence of protein. The received calorimetric data were analyzed using MicroCal Origin software and fitted into one-site and three-sequential binding sites models, as indicated by the manufacture for calculation of binding isotherms9. For data reproducibility, the titrations were performed in duplicates with different purification batches of recombinant PII proteins. The association binding constant (Ka) was generated from the software by de-convolution and curve fitting. For calculation of dissociation constant (Kd), the Ka value was inversed. […]

In the case of `Nc1ncnc2c1ncn2[C@@H]1O[C@H](COP(=O)(O)OP(=O)(O)O)[C@@H](O)[C@H]1O` [ADP], the “reduction of ScNAGK activity” value (ScNAGK) is reported as “about 1.8 fold”, the “Average Kd (one-site binding model)” value (CrPII; in presence 2-OG (2 mM)) is reported as “no ADP binding” and the “Kd1 (three-sites binding model)” value (CrPII; in presence 2-OG (2 mM)) is reported as “No binding”. The “Kd2 (three-sites binding model)” value (CrPII; in presence 2-OG (2 mM)) was “No binding”, the “Kd3 (three-sites binding model)” value (CrPII; in presence 2-OG (2 mM)) was “No binding” and the “Average Kd (one-site binding model)” value (CrPII; titrant alone) was “unable to notice any binding; also recorded: No binding”. The “Kd1 (three-sites binding model)” value (CrPII; titrant alone) was “No binding”, the “Kd2 (three-sites binding model)” value (CrPII; titrant alone) was “No binding” and the “Kd3 (three-sites binding model)” value (CrPII; titrant alone) was “No binding”.
